Test results published in patent US9278940B2, “Cyclic amines as bromodomain inhibitors” (Zenith Epigenetics Corp., priority 2012, dated 2016).
Structures can show the parent of a compound that is named as a salt.

Columns and labels:
Brd4 bromodomain 1 = target: T1, Brd4 bromodomain 1 (Homo sapiens, UniProt O60885); assay: Inhibition of tetra-acetylated histone H4 binding to BET bromodomain (TR-FRET); parameters: key: Active: Compounds with an IC50 value less than 30 μM were deemed to be active.; Not Active: Compounds with an IC50 value less than 30 μM were deemed to be active; conditions: Brd4 bromodomain 1, tetra-acetylated histone H4 peptide
T1 construct: made in house; host or cells: E. coli BL21(DE3)
Method: Proteins were cloned and overexpressed with a N-terminal 6×His tag, then purified by nickel affinity followed by size exclusion chromatography. Briefly, E. coli BL21(DE3) cells were transformed with a recombinant expression vector encoding N-terminally Nickel affinity tagged bromodomains from Brd2, Brd3, Brd4. Cell cultures were incubated at 37° C. with shaking to the appropriate density and induced overnight with IPTG. The supernatant of lysed cells was loaded onto Ni-IDA column for purification. Eluted protein is pooled, concentrated and further purified by size exclusion chromatography. Fractions representing monomeric protein were pooled, concentrated, aliquoted, and frozen at −80° C. for use in subsequent experiments.
Binding of tetra-acetylated histone H4 and BET bromodomains was confirmed by a Time Resolved Fluorescence Resonance Energy Transfer (TR-FRET) method. N-terminally His-tagged bromodomains (200 nM) and biotinylated tetra-acetylated histone H4 peptide (25-50 nM, Millipore) were incubated in the presence of Europium Cryptate-labeled streptavidin (Cisbio Cat. #610SAKLB) and XL665-labeled monoclonal anti-His antibody (Cisbio Cat. #61HISXLB) in a white 96 well microtiter plate (Greiner). For inhibition assays, serially diluted test compound was added to these reactions in a 0.2% final concentration of DMSO. Final buffer concentrations were 30 mM HEPES pH 7.4, 30 mM NaCl, 0.3 mM CHAPS, 20 mM phosphate pH 7.0, 320 mM KF, 0.08% BSA). After 2 hours incubation at room temperature, the fluorescence by FRET was measured at 665 and 620 nm by a SynergyH4 plate reader (Biotek). The binding inhibitory activity was shown by a decrease in 665 nm fluorescence relative to 620 nm. IC50 values were determined from a dose response curve.

hIL-6 mRNA = assay: Inhibition of hIL-6 mRNA transcription in LPS-stimulated U937 macrophages; type: cell-based, human; parameters: key: Active: Compounds with an IC50 value less than 30 μM are deemed to be active.; Not Active: Compounds with an IC50 value less than 30 μM are deemed to be active; conditions: U937 cells differentiated with PMA, 1 h pretreatment, LPS 3 h
Method: In this example, hIL-6 mRNA in tissue culture cells was quantitated to measure the transcriptional inhibition of hIL-6 when treated with a compound of the present disclosure.
A human leukemic monocyte lymphoma cell line (U937) was plated (3.2×10^4 cells per well) in a 96-well plate in […] RPMI-1640 containing 10% FBS and penicillin/streptomycin, and differentiated into macrophages for 3 days in 60 ng/mL PMA ([…]) at 37° C. in 5% CO2 prior to the addition of the compound of interest. The cells were pretreated for 1 h with the test compound prior to stimulation with 1 ug/mL lipopolysaccharide from Escherichia coli. The cells were incubated at 37-C for 3 h before the cells were harvested. At time of harvest, the spent media was removed from the cells and the cells were rinsed in 200 μL PBS. Cell lysis solution (70 μL) was added the cells in each well and incubated for 5-10 min at room temperature, to allow for complete cell lysis and detachment. mRNA was then prepared using the “mRNA Catcher PLUS plate” (Invitrogen), according to the protocol supplied. After the last wash, as much wash buffer as possible was aspirated without allowing the wells to dry. Elution buffer (E3, 70 μL) was then added to each well. mRNA was then eluted by incubating the mRNA Catcher PLUS plate with Elution Buffer for 5 min at 68° C. and then immediately placing the plate on ice.
The eluted mRNA isolated was then used in a one-step quantitative real-time PCR reaction, using components of the Ultra Sense Kit together with Applied Biosystems primer-probe mixes. Real-time PCR data was analyzed, normalizing the Ct values for hIL-6 to an internal control, prior to determining the fold induction of each unknown sample, relative to the control.

c-myc = assay: Inhibition of c-myc expression (mRNA, real-time PCR) in MV4-11 cells; type: cell-based; parameters: key: Active: Compounds with an IC50 value less than 30 μM were deemed to be active.; Not Active: Compounds with an IC50 value less than 30 μM were deemed to be active; conditions: Human AML MV4-11 cells, 3 hours
Method: MV4-11 cells (2.5×10^4 cells) were plated in 96 well U-bottom plates with test compound or DMSO (0.1%), and incubated for 3 hours at 37° C. Cells were then harvested by centrifugation, lysed, and mRNA was isolated using the mRNA catcher plus kit (Invitrogen). Reverse transcription of the mRNA and duplex amplification of the c-myc and cyclophilin cDNAs was performed using the RNA Ultrasense kit (Invitrogen) and a ViiA7 real-time PCR machine (Applied Biosystems). IC50 values were determined from a dose response curve.

Human AML MV-4-11 cells = assay: Inhibition of cell proliferation in MV4-11 cells; type: cell-based; parameters: key: Active: Compounds with an IC50 value less than 30 μM are deemed to be active.; Not Active: Compounds with an IC50 value less than 30 μM are deemed to be active; conditions: 72 hours
Method: MV4-11 cells: 96-well plates were seeded with 5×10^4 cells per well of exponentially growing human AML MV-4-11 (CRL-9591) cells and immediately treated with two-fold dilutions of test compounds, ranging from 30 μM to 0.2 μM. Triplicate wells were used for each concentration, as well as a media only and three DMSO control wells. The cells and compounds were incubated at 37° C., 5% CO2 for 72 hours before adding 20 μL of the CellTiter Aqueous One Solution (Promega) to each well and incubating at 37° C., 5% CO2 for an additional 3-4 hours. The absorbance was taken at 490 nm in a spectrophotometer and the percentage of proliferation relative to DMSO-treated cells was calculated after correction from the blank well. IC50 were calculated using the GraphPad Prism software.

hApoA-1 mRNA = assay: Up-regulation of hApoA-1 mRNA transcription in Huh7 cells; type: cell-based, human; parameters: key: Active: Compounds with an EC170 value less than 30 μM are deemed to be active.; Not Active: Compounds with an EC170 value less than 30 μM are deemed to be active; conditions: 48 hrs treatment, ApoA-I mRNA
Method: In this example, ApoA-I mRNA in tissue culture cells was quantitated to measure the transcriptional up-regulation of ApoA-I when treated with a compound of the present disclosure.
Huh7 cells ([…] per well) were plated in a 96-well plate using 100 μL DMEM per well, (Gibco DMEM supplemented with penicillin/streptomycin and 10% FBS), 24 h before the addition of the compound of interest. After 48 hrs treatment, the spent media was removed from the Huh-7 cells and placed on ice (for immediate use) or at −80° C. (for future use) with the “LDH cytotoxicity assay Kit II” from Abcam. The cells remaining in the plate were rinsed with 100 μL PBS.
Then 85 μL of cell lysis solution was added to each well and incubated for 5-10 minutes at room temperature, to allow for complete cell lysis and detachment. mRNA was then prepared using the “mRNA Catcher PLUS plate” from Life Technologies, according to the protocol supplied. After the last wash, as much wash buffer as possible was aspirated without allowing the wells to dry. Elution Buffer (E3, 80 μL) was then added to each well. mRNA was then eluted by incubating the mRNA Catcher PLUS plate with Elution Buffer for 5 minutes at 68° C., and then 1 minute at 4° C. Catcher plates with mRNA eluted were kept on ice for use or stored at −80° C.
The eluted mRNA isolated was then used in a one-step real-time PCR reaction, using components of the Ultra Sense Kit together with Life Technologies primer-probe mixes. Real-time PCR data was analyzed, using the Ct values, to determine the fold induction of each unknown sample, relative to the control (that is, relative to the control for each independent DMSO concentration).
Compounds with an EC170 value less than 30 μM are deemed to be active.

| SMILES | melting point | FRET activity (IC50 < 30 μM) (Brd4 bromodomain 1) | IL-6 activity (IC50 < 30 μM) (hIL-6 mRNA) | c-myc activity (IC50 < 30 μM) (c-myc) | cell proliferation activity (IC50 < 30 μM) (Human AML MV-4-11 cells) | ApoA-1 activity (EC170 < 30 μM) (hApoA-1 mRNA) |
| --- | --- | --- | --- | --- | --- | --- |
| COc1cc(OC)c2c(=O)[nH]c(-c3ccc(OCCO)c(N4CCN(C(C)C)CC4)n3)nc2c1 (as salt: acetate) [Example 13, 2-(5-(2-Hydroxyethoxy)-6-(4-isopropylpiperazin-1-yl)pyridin-2-yl)-5,7-dimethoxyquinazolin-4(3H)-one acetate] | 138 to 139 °C |  |  |  |  |  |
| COc1cc(OC)c2c(=O)[nH]c(-c3ccc(OCCNC(C)C)c(N4CCN(C(C)C)CC4)n3)nc2c1 (as salt: trifluoroacetate) [Example 12, 2-(5-(2-(Isopropylamino)ethoxy)-6-(4-isopropylpiperazin-1-yl)pyridin-2-yl)-5,7-dimethoxyquinazolin-4(3H)-one bis(trifluoroacetate)] | 186 to 188 °C |  |  |  |  |  |
| COC(=O)CN1CCN(c2cccc(-c3nc4cc(OC)cc(OC)c4c(=O)[nH]3)n2)CC1 [Example 7, Methyl 2-(4-(6-(5,7-dimethoxy-4-oxo-3,4-dihydroquinazolin-2-yl)pyridin-2-yl)piperazin-1-yl)acetate] | 176 to 177 °C | Active | Active |  |  |  |
| COc1cc(OC)c2c(=O)[nH]c(-c3cccc(N4CCN(CC(=O)O)CC4)n3)nc2c1 [Example 10, 2-(4-(6-(5,7-Dimethoxy-4-oxo-3,4-dihydroquinazolin-2-yl)pyridin-2-yl)piperazin-1-yl)acetic acid] | 225 °C (dec.) | Active | Not Active |  |  |  |
| COc1cc(OC)c2c(=O)[nH]c(-c3ccc(OCCNC(C)C)c(N4CCN(C(C)C)CC4)n3)nc2c1 [Example 12, 2-(5-(2-(Isopropylamino)ethoxy)-6-(4-isopropylpiperazin-1-yl)pyridin-2-yl)-5,7-dimethoxyquinazolin-4(3H)-one bis(trifluoroacetate)] |  | Active | Not Active | Active | Active | Active |
| COc1cc(OC)c2c(=O)[nH]c(-c3ccc(OCCO)c(N4CCN(C(C)C)CC4)n3)nc2c1 [Example 13, 2-(5-(2-Hydroxyethoxy)-6-(4-isopropylpiperazin-1-yl)pyridin-2-yl)-5,7-dimethoxyquinazolin-4(3H)-one acetate] |  | Active | Active | Active | Not Active | Active |
| COc1cc(OC)c2c(=O)[nH]c(-c3cccc(N4CCN(C)CC4)n3)nc2c1 [Example 15, 5,7-Dimethoxy-2-(6-(4-methylpiperazin-1-yl)pyridin-2-yl)quinazolin-4(3H)-one Hydrochloride] |  | Active | Active | Active | Active | Active |
| CCC(=O)N1CCN(c2cccc(-c3nc4cc(OC)cc(OC)c4c(=O)[nH]3)n2)CC1 [Example 19, 5,7-Dimethoxy-2-(6-(4-propionylpiperazin-1-yl)pyridin-2-yl)quinazolin-4(3H)-one dihydrochloride] |  | Active | Not Active | Not Active | Not Active | Active |
| COc1cc(OC)c2c(=O)[nH]c(-c3cccc(N4CCC(N(C)C)CC4)n3)nc2c1 [Example 29, 2-(6-(4-(Dimethylamino)piperidin-1-yl)pyridin-2-yl)-5,7-dimethoxyquinazolin-4(3H)-one] |  | Active | Active | Active | Active | Active |
| COc1cc(OC)c2c(=O)[nH]c(-c3cc(Cl)cc(N4CCNCC4)c3)nc2c1 [Example 31, 2-(3-Chloro-5-(piperazin-1-yl)phenyl)-5,7-dimethoxyquinazolin-4(3H)-one] |  | Active | Active | Active | Active | Active |
| COc1cc(OC)c2c(=O)[nH]c(-c3cc(Cl)cc(N4CCN(C(C)C)CC4)c3)nc2c1 [Example 32, 2-(3-Chloro-5-(4-isopropylpiperazin-1-yl)phenyl)-5,7-dimethoxyquinazolin-4(3H)-one] |  | Active | Active | Active | Active | Active |
